This note sets out measurements from ChEMBL document CHEMBL3045339, “Synthesis of benzoxazoles, benzothiazoles and benzimidazoles and evaluation of their antifungal, insecticidal and herbicidal activities” (1992).

In brackets after ≈: the same amount, converted by molar mass.

A word on the MIC: it is the lowest concentration found to suppress growth.

Common to all, as to assay type: functional
One assay has as its system Bacillus subtilis. As to the kind of experiment: Antibacterial activity against Bacillus subtilis after 48 hr.
The next assay concerns Pseudomonas aeruginosa. As to the kind of experiment: Antibacterial activity against Pseudomonas aeruginosa after 48 hr.
A further assay deals with Escherichia coli. Description: Antibacterial activity against Escherichia coli after 48 hr.
The subject of assay [1] is Persicaria hydropiper. As to the kind of experiment: Herbicidal activity against Persicaria hydropiper assessed as disease control at 1000 ppm treated in soil during 15 to 20 days relative to control.
Assay [2] concerns Eleusine indica. As to the kind of experiment: Herbicidal activity against Eleusine indica assessed as disease control at 1000 ppm treated in soil during 15 to 20 days relative to control.
Assay [3] relates to Echinochloa crus-galli. Description: Herbicidal activity against Echinochloa crus-galli (barnyard grass) assessed as disease control at 1000 ppm treated in soil during 15 to 20 days relative to control.
The next assay concerns Fusarium fujikuroi. Description: Antifungal activity against Fusarium fujikuroi after 7 days. The arrangement: concentration or dose not given beside the values.
A further assay concerns Xanthomonas axonopodis. As to the kind of experiment: Antibacterial activity against Xanthomonas axonopodis after 7 days. Details: concentration or dose not given beside the values.
The subject of assay [4] is Pseudoperonospora cubensis. Description: Antifungal activity against Pseudoperonospora cubensis after 7 days. The arrangement: concentration or dose not given beside the values.
The subject of the next assay is Botrytis cinerea. As to the kind of experiment: Antifungal activity against Botryotinia fuckeliana after 7 days. The arrangement: concentration or dose not given beside the values.
Another assay relates to Pyricularia oryzae. As to the kind of experiment: Antifungal activity against Magnaporthe oryzae after 7 days. Details: concentration or dose not given beside the values.
The subject of the next assay is Oryza sativa. As to the kind of experiment: Herbicidal activity against Oryza sativa assessed as disease control at 1000 ppm treated in paddy field during 15 to 20 days relative to control.
In another assay the test system is Panonychus citri. Description: Insecticidal activity against Panonychus citri at 500 ppm up to 21 days.
A further assay concerns Cyperus compressus. As to the kind of experiment: Herbicidal activity against Cyperus compressus assessed as disease control at 1000 ppm treated in paddy field during 15 to 20 days relative to control.
Assay [5] has as its system Echinochloa crus-galli. As to the kind of experiment: Herbicidal activity against Echinochloa crus-galli (barnyard grass) assessed as disease control at 1000 ppm treated in paddy field during 15 to 20 days relative to control.
In assay [6] the test system is Chenopodium album. Description: Herbicidal activity against Chenopodium album assessed as disease control at 1000 ppm treated in foliage during 15 to 20 days relative to control.
The test system of assay [7] is Amaranthus viridis. Description: Herbicidal activity against Amaranthus viridis assessed as disease control at 1000 ppm treated in foliage during 15 to 20 days relative to control.
Assay [8] has as its system Persicaria hydropiper. Description: Herbicidal activity against Persicaria hydropiper assessed as disease control at 1000 ppm treated in foliage during 15 to 20 days relative to control.
Assay [9] concerns Eleusine indica. Description: Herbicidal activity against Eleusine indica assessed as disease control at 1000 ppm treated in foliage during 15 to 20 days relative to control.
Assay [10] concerns Echinochloa crus-galli. Description: Herbicidal activity against Echinochloa crus-galli (barnyard grass) assessed as disease control at 1000 ppm treated in foliage during 15 to 20 days relative to control.
Assay [11] has as its system Amaranthus viridis. As to the kind of experiment: Herbicidal activity against Amaranthus viridis assessed as disease control at 1000 ppm treated in soil during 15 to 20 days relative to control.
Assay [12] relates to Chenopodium album. As to the kind of experiment: Herbicidal activity against Chenopodium album assessed as disease control at 1000 ppm treated in soil during 15 to 20 days relative to control.
A further assay concerns Mycobacterium. Description: Antibacterial activity against Mycobacterium ovicum after 48 hr.
Another assay has as its system Staphylococcus aureus. As to the kind of experiment: Antibacterial activity against Staphylococcus aureus after 48 hr.

On to `c1ccc2[nH]c(-c3ccnc4ccccc34)nc2c1`, for which the MIC with Bacillus subtilis, against Pseudomonas aeruginosa and with Escherichia coli was 100 µg/mL (≈ 408 µM) each time.

On to `c1ccc2nc(-c3nc4ccccc4[nH]3)ccc2c1`, for which the MIC with Pseudomonas aeruginosa was 100 µg/mL (≈ 408 µM).

`Clc1cccc2nc(-c3ccccn3)[nH]c12`: the Activity in the assay on Persicaria hydropiper [1] is below 39%; in the assay on Eleusine indica [2] it was below 39%; in the assay on Echinochloa crus-galli [3] it was below 39%; with Fusarium fujikuroi it was below 39%; with Xanthomonas axonopodis it was 60%; in [4], below 39%. For the same molecule, the Activity in the assay on Botrytis cinerea was above 80%; in the assay on Pyricularia oryzae it was above 80%; in the assay on Oryza sativa, below 39%; with Panonychus citri it was 91.5%; in the assay with Cyperus compressus it was below 39%; in the assay with Echinochloa crus-galli [5], below 39%. In addition, the Activity with Chenopodium album [6], in the assay on Amaranthus viridis [7], in the assay on Persicaria hydropiper [8], with Eleusine indica [9], with Echinochloa crus-galli [10] and in the assay on Amaranthus viridis [11] was below 39% in each case. Besides, the Activity in the assay on Chenopodium album [12] is on record as below 39%.

As for `Clc1ccc2sc(-c3ccccn3)nc2c1`, the Activity (with Persicaria hydropiper [1]; with Eleusine indica [2]; in the assay on Echinochloa crus-galli [3]; in the assay on Fusarium fujikuroi; with Xanthomonas axonopodis; in assay [4]) was below 39% throughout. Also, the Activity in the assay on Botrytis cinerea is below 39%; in the assay on Pyricularia oryzae, below 39%; in the assay with Oryza sativa, below 39%; in the assay on Cyperus compressus, above 80%; in the assay with Echinochloa crus-galli [5], below 39%; in the assay on Chenopodium album [6] it was 40%. Moreover, the Activity with Amaranthus viridis [7] was 60%; in the assay on Persicaria hydropiper [8], below 39%; in the assay with Eleusine indica [9], below 39%; in the assay on Echinochloa crus-galli [10], below 39%; in the assay on Amaranthus viridis [11], below 39%; with Chenopodium album [12] it was below 39%.

Take `FC(F)(F)c1ccc2sc(-c3ccccn3)nc2c1`: the Activity (in the assay with Persicaria hydropiper [1]; in the assay with Eleusine indica [2]; in the assay with Echinochloa crus-galli [3]; with Fusarium fujikuroi; in the assay with Xanthomonas axonopodis; in assay [4]) was below 39% each time. In addition, the Activity with Botrytis cinerea is given as below 39%; in the assay with Pyricularia oryzae, below 39%; in the assay with Oryza sativa it was below 39%; in the assay on Panonychus citri it was 81.3%; with Cyperus compressus, above 80%; in the assay on Echinochloa crus-galli [5], above 80%. The Activity in the assay on Chenopodium album [6] is on record as above 80%; with Amaranthus viridis [7], above 80%; with Persicaria hydropiper [8], below 39%; with Eleusine indica [9] it was below 39%; in the assay on Echinochloa crus-galli [10] it was below 39%; in the assay with Amaranthus viridis [11], 60%. Besides, in the assay on Chenopodium album [12], the Activity is below 39%.

Turning to `COc1ccc2sc(-c3ccccn3)nc2c1`, the Activity (with Persicaria hydropiper [1]; in the assay with Eleusine indica [2]; in the assay on Echinochloa crus-galli [3]; in the assay on Fusarium fujikuroi; in the assay on Xanthomonas axonopodis; in [4]) was below 39% in each case. Moreover, the Activity is listed as below 39% in the assay on Botrytis cinerea; below 39% in the assay with Pyricularia oryzae; 40% in the assay on Oryza sativa; 60% in the assay with Cyperus compressus; below 39% in the assay with Echinochloa crus-galli [5]; below 39% in the assay with Chenopodium album [6]. Besides, the Activity is reported as 40% in the assay with Amaranthus viridis [7]; below 39% in the assay on Persicaria hydropiper [8]; below 39% in the assay with Eleusine indica [9]; below 39% in the assay on Echinochloa crus-galli [10]; below 39% with Amaranthus viridis [11]; below 39% in the assay on Chenopodium album [12].

Take `Cc1ccc2nc(-c3ccccn3)[nH]c2c1`: the Activity with Persicaria hydropiper [1] is on record as below 39%; in the assay with Eleusine indica [2], below 39%; with Echinochloa crus-galli [3] it was below 39%; with Fusarium fujikuroi, below 39%; in the assay with Xanthomonas axonopodis it was 40%; in assay [4] it was 60%. The Activity in the assay on Botrytis cinerea is recorded as below 39%; in the assay on Pyricularia oryzae it was 60%; in the assay on Oryza sativa, below 39%; in the assay with Cyperus compressus it was below 39%; in the assay on Echinochloa crus-galli [5] it was below 39%; in the assay with Chenopodium album [6], 60%. For the same molecule, the Activity is reported as 40% in the assay on Amaranthus viridis [7]; below 39% in the assay with Persicaria hydropiper [8]; below 39% in the assay with Eleusine indica [9]; below 39% with Echinochloa crus-galli [10]; below 39% in the assay with Amaranthus viridis [11]; below 39% with Chenopodium album [12]. The MIC was determined as 100 µg/mL (≈ 478 µM) with Bacillus subtilis and 50 µg/mL (≈ 239 µM) against Escherichia coli.

Molecule `c1ccc2[nH]c(-c3ccncc3)nc2c1` showed an MIC against Pseudomonas aeruginosa of 100 µg/mL (≈ 512 µM).

For `O=[N+]([O-])c1ccc2[nH]c(-c3ccccn3)nc2c1`, the Activity is recorded as below 39% in the assay on Persicaria hydropiper [1]; below 39% in the assay on Eleusine indica [2]; below 39% in the assay with Echinochloa crus-galli [3]; below 39% in the assay on Fusarium fujikuroi; 40% with Xanthomonas axonopodis; below 39% in [4]. The Activity in the assay on Botrytis cinerea is recorded as below 39%; with Pyricularia oryzae, 60%; in the assay on Oryza sativa, below 39%; with Cyperus compressus, below 39%; in the assay on Echinochloa crus-galli [5] it was below 39%; in the assay on Chenopodium album [6], below 39%. Further, the Activity in the assay with Amaranthus viridis [7], in the assay with Persicaria hydropiper [8], with Eleusine indica [9], with Echinochloa crus-galli [10], in the assay with Amaranthus viridis [11] and in the assay on Chenopodium album [12] was below 39% throughout. Further, the MIC against Mycobacterium came to 50 µg/mL (≈ 208 µM); in the assay with Bacillus subtilis, 50 µg/mL (≈ 208 µM); against Pseudomonas aeruginosa it was 100 µg/mL (≈ 416 µM); against Escherichia coli, 10 µg/mL (≈ 41.6 µM); against Staphylococcus aureus, 50 µg/mL (≈ 208 µM).

`c1ccc(-c2nc3ccccc3[nH]2)nc1`: the Activity in the assay with Persicaria hydropiper [1] is listed as below 39%; in the assay on Eleusine indica [2], below 39%; with Echinochloa crus-galli [3] it was below 39%; in the assay on Fusarium fujikuroi it was below 39%; in the assay on Xanthomonas axonopodis, 60%; in assay [4], above 80%. Further, the Activity in the assay on Botrytis cinerea was 60%; with Pyricularia oryzae it was below 39%; with Oryza sativa it was below 39%; with Cyperus compressus, below 39%; with Echinochloa crus-galli [5] it was below 39%; in the assay on Chenopodium album [6], below 39%. Besides, the Activity in the assay with Amaranthus viridis [7], with Persicaria hydropiper [8], with Eleusine indica [9], with Echinochloa crus-galli [10], with Amaranthus viridis [11] and in the assay on Chenopodium album [12] was below 39% each time. Also, the minimum inhibitory concentration (MIC) in the assay on Bacillus subtilis and with Pseudomonas aeruginosa was 100 µg/mL (≈ 512 µM) in each case.
